In ChEMBL document CHEMBL1136115, “Constrained phytoestrogens and analogues as ERbeta selective ligands” (Bioorg Med Chem Lett, 2003):

What was measured:
[1] = target: T1, Estrogen receptor (Homo sapiens) (UniProt P03372); test: Effective dose in ERalpha-MCF-7 cells; format: functional, cell-based
T1 sequence (whole entry): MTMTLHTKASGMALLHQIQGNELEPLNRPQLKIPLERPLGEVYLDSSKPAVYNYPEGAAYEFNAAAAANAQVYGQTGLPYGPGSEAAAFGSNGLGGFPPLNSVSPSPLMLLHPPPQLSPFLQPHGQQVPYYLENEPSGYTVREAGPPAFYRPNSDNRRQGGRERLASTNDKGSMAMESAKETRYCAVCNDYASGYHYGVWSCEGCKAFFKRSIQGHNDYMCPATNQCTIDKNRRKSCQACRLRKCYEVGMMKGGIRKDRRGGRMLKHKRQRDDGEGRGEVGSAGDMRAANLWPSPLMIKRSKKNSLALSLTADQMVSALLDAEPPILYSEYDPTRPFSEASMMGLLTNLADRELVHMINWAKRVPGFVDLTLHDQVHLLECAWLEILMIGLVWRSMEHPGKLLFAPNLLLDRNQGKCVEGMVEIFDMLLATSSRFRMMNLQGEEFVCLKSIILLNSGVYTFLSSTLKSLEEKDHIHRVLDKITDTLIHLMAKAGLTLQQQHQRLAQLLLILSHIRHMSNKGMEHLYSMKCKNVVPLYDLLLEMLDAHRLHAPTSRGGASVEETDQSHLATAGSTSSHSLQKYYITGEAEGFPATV

[2] = target: T1, Estrogen receptor (Homo sapiens); test: Efficacy in ER alpha-MCF-7 cells; format: functional, cell-based
[3] = target: T2, Estrogen receptor beta (Homo sapiens, UniProt Q92731); test: Effective dose in metallothionein-II using metallothionein assay
T2 sequence (Q92731 whole entry): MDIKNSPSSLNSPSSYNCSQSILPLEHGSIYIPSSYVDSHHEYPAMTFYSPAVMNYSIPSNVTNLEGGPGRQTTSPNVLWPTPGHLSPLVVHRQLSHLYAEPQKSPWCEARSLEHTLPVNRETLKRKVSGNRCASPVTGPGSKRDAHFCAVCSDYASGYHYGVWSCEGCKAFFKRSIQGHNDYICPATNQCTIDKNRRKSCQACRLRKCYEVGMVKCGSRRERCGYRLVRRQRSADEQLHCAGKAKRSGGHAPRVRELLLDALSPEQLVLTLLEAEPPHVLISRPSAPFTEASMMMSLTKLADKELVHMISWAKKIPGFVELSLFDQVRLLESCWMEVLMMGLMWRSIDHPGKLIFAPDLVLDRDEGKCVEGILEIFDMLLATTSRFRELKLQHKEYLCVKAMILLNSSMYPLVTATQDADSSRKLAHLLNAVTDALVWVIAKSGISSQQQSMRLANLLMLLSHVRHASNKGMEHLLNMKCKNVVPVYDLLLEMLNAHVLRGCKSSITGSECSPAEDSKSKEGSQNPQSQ

[4] = target: T2, Estrogen receptor beta
Description: Binding affinity towards human estrogen receptor beta (ERbeta)

[5] = target: T3, Estrogen receptor (Homo sapiens, UniProt P03372)
T3 sequence (P03372 whole entry): T1 sequence (whole entry)
Description: Binding affinity towards human estrogen receptor alpha(ERalpha)

Row | SMILES | ED50 [1] [nM] | Efficacy [2] [%] | ED50 [3] [nM] | IC50 [4] [nM] | IC50 [5] [nM]
1 | O=c1c2oc3ccc(O)cc3c2oc2cc(O)cc(O)c12 | > 500 | 58 | 18 | 42 | –
2 | O=c1c2cc(O)ccc2oc2c1oc1ccc(O)cc12 | – | – | – | – | 180
3 | O=c1c2ccc(O)cc2oc2c1oc1c(Br)cc(O)cc12 | – | – | – | 1740 | > 5000
4 | O=c1c2ccc(O)cc2oc2c1oc1ccccc12 | – | – | – | – | > 5000
5 | O=c1c2ccccc2oc2c1oc1cc(O)ccc12 | – | – | – | – | > 5000
6 | N#Cc1cc(O)cc2c1oc1c(=O)c3ccc(O)cc3oc12 | – | – | – | > 5000 | > 5000

Second part, the compound after the results:

Row | ED50 [1] [nM] | Efficacy [2] [%] | ED50 [3] [nM] | IC50 [4] [nM] | IC50 [5] [nM] | SMILES
7 | – | – | – | 1340 | 1550 | N#Cc1cc(O)cc2c1oc1c(=O)c3c(O)cc(O)cc3oc12
8 | – | – | – | 343 | 1260 | O=c1c2oc3c(Br)cc(O)cc3c2oc2cc(O)cc(O)c12
9 | – | – | – | 1.7 | – | O=c1c2c(O)cc(O)cc2oc2oc3cc(O)ccc3c12
